Test results: ChEMBL document CHEMBL6153094, “Rationally designed highly amphipathic antimicrobial peptides demonstrating superior bacterial selectivity relative to the corresponding α-helix peptide” (Eur J Med Chem, 2025)
Converted amounts (≈) assume the structure as drawn.

Columns and labels:
Format in all cases: functional
Pseudomonas aeruginosa [1] = test: Antimicrobial activity against gentamicin-resistant Pseudomonas aeruginosa ATCC 27853 assessed as inhibition of visible bacterial growth incubated for 18 hrs by broth microdilution method
Klebsiella pneumoniae = test: Antimicrobial activity against Klebsiella pneumoniae ATCC 700603 assessed as inhibition of visible bacterial growth incubated for 18 hrs by broth microdilution method
Pseudomonas aeruginosa [2] = test: Resistance fold, ratio of MIC for Pseudomonas aeruginosa ATCC 27853 measured after 10th passage to MIC for Pseudomonas aeruginosa ATCC 27853 measured immediately
[3] = tested on: Staphylococcus epidermidis; test: Antimicrobial activity against Staphylococcus epidermidis ATCC 12228 assessed as inhibition of visible bacterial growth incubated for 18 hrs by broth-dilution method
Escherichia coli = test: Antimicrobial activity against Escherichia coli ATCC 25922 assessed as inhibition of visible bacterial growth incubated for 18 hrs by broth microdilution method
Staphylococcus aureus [4] = test: Resistance fold, ratio of MIC for Staphylococcus aureus ATCC 25923 measured after 8th passage to MIC for Staphylococcus aureus ATCC 25923 measured immediately
Staphylococcus aureus [5] = test: Antimicrobial activity against Staphylococcus aureus ATCC 25923 assessed as inhibition of visible bacterial growth incubated for 18 hrs by broth-dilution method
Pseudomonas aeruginosa [6] = test: Antimicrobial activity against Pseudomonas aeruginosa ATCC 27853 assessed as inhibition of visible bacterial growth incubated for 18 hrs by broth microdilution method
Acinetobacter baumannii = test: Antimicrobial activity against Acinetobacter baumannii ATCC 19606 assessed as inhibition of visible bacterial growth incubated for 18 hrs by broth microdilution method
Enterococcus faecalis = test: Antimicrobial activity against Enterococcus faecalis ATCC 29212 assessed as inhibition of visible bacterial growth incubated for 18 hrs by broth-dilution method
Staphylococcus aureus [7] = test: Antimicrobial activity against gentamicin-resistant Staphylococcus aureus ATCC 25923 assessed as inhibition of visible bacterial growth incubated for 18 hrs by broth-dilution method
Bacillus subtilis = test: Antimicrobial activity against Bacillus subtilis ATCC 23857 assessed as inhibition of visible bacterial growth incubated for 18 hrs by broth microdilution method

With CN[C@@H]1[C@@H](O)[C@@H](O[C@@H]2[C@@H](O)[C@H](O[C@H]3O[C@H]([C@@H](C)NC)CC[C@H]3N)[C@@H](N)C[C@H]2N)OC[C@]1(C)O [GENTAMICIN C1] the MIC (Pseudomonas aeruginosa [1]) was 64 µM (≈ 30.6 µg/mL), the MIC (Klebsiella pneumoniae) was 16 µM (≈ 7.64 µg/mL) and the “fold change (FC)” value (Pseudomonas aeruginosa [2]) was 32. For the same molecule, the MIC [3] was < 1 µM, the MIC (Escherichia coli) was 2 µM (≈ 0.955 µg/mL) and the “fold change (FC)” value (Staphylococcus aureus [4]) was 32. For the same molecule, the MIC (Staphylococcus aureus [5]) was < 1 µM, the MIC (Pseudomonas aeruginosa [6]) was < 1 µM and the MIC (Acinetobacter baumannii) was 16 µM (≈ 7.64 µg/mL). For the same molecule, the MIC (Enterococcus faecalis) was 16 µM (≈ 7.64 µg/mL), the MIC (Staphylococcus aureus [7]) was 32 µM (≈ 15.3 µg/mL) and the MIC (Bacillus subtilis) was < 1 µM.
